Drawing on US20260217662A1, “PROCESSES FOR PREPARING TRIAZOLE GLYCOLATE OXIDASE INHIBITORS” (CANTERO THERAPEUTICS, INC., priority 2020, published 2026), this text covers IC50 for two compounds.

In this test the target is T1, human glycolate oxidase (hGO) (Homo sapiens, UniProt Q9UJM8).
T1 construct: His-tag (6 histidines) (N); made in house; host or cells: E. coli BL21 (DE3)
T1 sequence (Q9UJM8 1-370): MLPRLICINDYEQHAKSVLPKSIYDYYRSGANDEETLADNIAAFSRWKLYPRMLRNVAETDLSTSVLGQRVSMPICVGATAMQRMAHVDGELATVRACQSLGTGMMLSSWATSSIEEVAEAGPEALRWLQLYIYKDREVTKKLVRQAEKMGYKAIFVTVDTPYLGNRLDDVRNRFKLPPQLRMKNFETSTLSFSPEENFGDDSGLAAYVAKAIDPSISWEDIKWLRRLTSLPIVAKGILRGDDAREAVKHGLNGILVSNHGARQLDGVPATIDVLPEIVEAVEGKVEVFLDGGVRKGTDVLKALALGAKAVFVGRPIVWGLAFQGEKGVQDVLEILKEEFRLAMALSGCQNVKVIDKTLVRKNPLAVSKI
The test can be described thus: In vitro inhibition of human glycolate oxidase (enzymatic assay, coupled HRP/Trinder reaction). Type of test: biochemical. The following applies: recombinant hGO, 40 mM glycolic acid, pH 7, activity at 1 minute, read at 515 nm. The source says: The catalytic reactions used for assaying glycolate oxidase activity in the presence of compounds according to the present disclosure are outlined in FIG. 9. Glycolate oxidase (GO)-catalyzed conversion of glycolate to glyoxylate (top reaction), with the concomitant reduction of the cofactor flavin mononucleotide (FMN), uses molecular oxygen (O2) for recovering its oxidative state, releasing hydrogen peroxide (H2O2). The Trinder reaction (bottom reaction), in which horseradish peroxidase (HRP) uses hydrogen peroxide, 4-aminoantipyrine and a phenol derivative (sulphonated DCIP) to generate a quinoneimine dye that is spectrophotometrically measured.
Human glycolate oxidase (hGO) expression: BL21 (DE3) E. coli transformed with recombinant pET-15b expression vector with the N-terminal His-tag human Hao1 cDNA was grown in LB medium in the presence of 0.1 mg/ml ampicillin. […] Protein were quantified by the bicinchoninic acid (BCA) assay.
Enzymatic assays: Enzymatic activity of hGO was determined in the presence of glycolate as substrate (40 mM glycolic acid) and phosphate buffer (50 mM KPO4, 0.1 mM EDTA, pH 7). The production of glyoxylate was indirectly measured by the quantification of hydrogen peroxide formed during the first oxidation reaction. […] Enzymatic activity was calculated at 1 minute after initiation of the Trinder reaction.

A word on the IC50: it is the concentration that inhibits the measured activity by half. On to `O=C(O)c1nn[nH]c1Oc1ccc(-c2ccc(C3CCC(F)(F)C3)cc2)cc1` (centres unmarked) [Ib-1, 5-((4′-(3,3-difluorocyclopentyl)-[1,1′-biphenyl]-4-yl)oxy)-1H-1,2,3-triazole-4-carboxylic acid], for which the IC50 was under 100 nM.
With `O=C(O)c1nn[nH]c1Oc1ccc(-c2ccc(C3CCC(F)(F)CC3)cc2)cc1` [Ic-1, 5-((4′-(4,4-difluorocyclohexyl)-[1,1′-biphenyl]-4-yl)oxy)-1H-1,2,3-triazole-4-carboxylic acid], the IC50 is under 100 nM.
